Laboratory results taken from the supplement of paper PMC4628005.

Key:
Details in all cases: drug exposure time: 96 h
Sirolimus = compound: CO[C@H]1C[C@@H]2CC[C@@H](C)[C@@](O)(O2)C(=O)C(=O)N2CCCC[C@H]2C(=O)O[C@H]([C@H](C)C[C@@H]2CC[C@@H](O)[C@H](OC)C2)CC(=O)[C@H](C)/C=C(\C)[C@@H](O)[C@@H](OC)C(=O)[C@H](C)C[C@H](C)/C=C/C=C/C=C/1C [Sirolimus]
Experimental: (§1)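 Same SRB 96 h IC50 screen on breast cancer cell lines (RPMI 1640 + 10% FBS, collagen I-coated 96-well plates, triplicates, 12 dilutions), for drugs with a different dose range: Bortezomib up to 2e-5 M; Sirolimus and 17-AAG up to 2e-6 M. Sirolimus values at the 2e-6 M top dose are censored.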

Bortezomib = compound: CC(C)C[C@H](NC(=O)[C@H](Cc1ccccc1)NC(=O)c1cnccn1)B(O)O [Bortezomib]
Experimental: as §1

17-AAG = compound: C=CCNC1=C2C[C@@H](C)C[C@H](OC)[C@H](O)[C@@H](C)/C=C(\C)[C@H](OC(N)=O)[C@@H](OC)/C=C\C=C(/C)C(=O)NC(=CC1=O)C2=O [17-AAG]
Experimental: as §1

Paclitaxel = compound: CC(=O)O[C@H]1C(=O)[C@@]2(C)[C@H]([C@H](OC(=O)c3ccccc3)[C@]3(O)C[C@H](OC(=O)[C@H](O)[C@@H](NC(=O)c4ccccc4)c4ccccc4)C(C)=C1C3(C)C)[C@]1(OC(C)=O)CO[C@@H]1C[C@@H]2O [Paclitaxel]
Experimental: (§2)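 Breast cancer cell lines were grown in RPMI 1640 with 10% FBS on collagen I-coated 96-well plates and treated for 96 h (from 24 h after seeding) with 12 dilutions per drug, in triplicate. Growth was read by sulforhodamine B total-protein staining (absorbance 570 nm) relative to diluent control, and IC50 was calculated. The top dose was 1e-5 M for most drugs; Bortezomib went to 2e-5 M and Sirolimus and 17-AAG to 2e-6 M[…].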

Vorinostat = compound: O=C(CCCCCCC(=O)Nc1ccccc1)NO [Vorinostat]
Experimental: as §2

Erlotinib = compound: C#Cc1cccc(Nc2ncnc3cc(OCCOC)c(OCCOC)cc23)c1 [Erlotinib]
Experimental: as §2

Brivanib = compound: Cc1cc2c(F)c(Oc3ncnn4cc(OC[C@@H](C)O)c(C)c34)ccc2[nH]1 [Brivanib]
Experimental: as §2

Azacitidine = compound: Nc1ncn([C@@H]2O[C@H](CO)[C@@H](O)[C@H]2O)c(=O)n1 [Azacitidine]
Experimental: as §2

MI-219 = compound: CC(C)(C)C[C@H]1N[C@@H](C(=O)NCC[C@H](O)CO)[C@H](c2cccc(Cl)c2)[C@@]12C(=O)Nc1cc(Cl)c(F)cc12 [MI-219]
Experimental: as §2

Lapatinib = compound: CS(=O)(=O)CCNCc1ccc(-c2ccc3ncnc(Nc4ccc(OCc5cccc(F)c5)c(Cl)c4)c3c2)o1 [Lapatinib]
Experimental: as §2

Serdemetan = compound: c1ccc2c(CCNc3ccc(Nc4ccncc4)cc3)c[nH]c2c1 [Serdemetan]
Experimental: as §2

Belinostat = compound: O=C(/C=C/c1cccc(S(=O)(=O)Nc2ccccc2)c1)NO [Belinostat]
Experimental: as §2

Quisinostat = compound: Cn1cc(CNCC2CCN(c3ncc(C(=O)NO)cn3)CC2)c2ccccc21 [Quisinostat]
Experimental: as §2

Tamoxifen = compound: CC/C(=C(\c1ccccc1)c1ccc(OCCN(C)C)cc1)c1ccccc1 [Tamoxifen]
Experimental: as §2

Doxorubicin = compound: COc1cccc2c1C(=O)c1c(O)c3c(c(O)c1C2=O)C[C@@](O)(C(=O)CO)C[C@@H]3O[C@H]1C[C@H](N)[C@H](O)[C@H](C)O1 [Doxorubicin]
Experimental: as §2

Decitabine = compound: Nc1ncn([C@H]2C[C@H](O)[C@@H](CO)O2)c(=O)n1 [Decitabine]
Experimental: as §2

Nutlin-3 = compound: COc1ccc(C2=N[C@@H](c3ccc(Cl)cc3)[C@@H](c3ccc(Cl)cc3)N2C(=O)N2CCNC(=O)C2)c(OC(C)C)c1 [Nutlin-3]
Experimental: as §2

Sorafenib = compound: CNC(=O)c1cc(Oc2ccc(NC(=O)Nc3ccc(Cl)c(C(F)(F)F)c3)cc2)ccn1 [Sorafenib]
Experimental: as §2

5-Fluorouracil = compound: O=c1[nH]cc(F)c(=O)[nH]1 [5-Fluorouracil]
Experimental: as §2

Docetaxel = compound: CC(=O)O[C@@]12CO[C@@H]1C[C@H](O)[C@@]1(C)C(=O)[C@H](O)C3=C(C)[C@@H](OC(=O)[C@H](O)[C@@H](NC(=O)OC(C)(C)C)c4ccccc4)C[C@@](O)([C@@H](OC(=O)c4ccccc4)[C@H]21)C3(C)C [Docetaxel]
Experimental: as §2

Dasatinib = compound: Cc1nc(Nc2ncc(C(=O)Nc3c(C)cccc3Cl)s2)cc(N2CCN(CCO)CC2)n1 [Dasatinib]
Experimental: as §2

Vandetanib = compound: COc1cc2/c(=N/c3ccc(Br)cc3F)nc[nH]c2cc1OCC1CCN(C)CC1 [Vandetanib]
Experimental: as §2

Methotrexate = compound: CN(Cc1cnc2nc(N)nc(N)c2n1)c1ccc(C(=O)N[C@@H](CCC(=O)O)C(=O)O)cc1 [Methotrexate]
Experimental: as §2

Mitoxantrone = compound: O=C1c2c(O)ccc(O)c2C(=O)c2c(NCCNCCO)ccc(NCCNCCO)c21 [Mitoxantrone]
Experimental: as §2

Tipifarnib = compound: Cn1cncc1[C@@](N)(c1ccc(Cl)cc1)c1ccc2c(c1)c(-c1cccc(Cl)c1)cc(=O)n2C [Tipifarnib]
Experimental: as §2

Gefitinib = compound: COc1cc2ncnc(Nc3ccc(F)c(Cl)c3)c2cc1OCCCN1CCOCC1 [Gefitinib]
Experimental: as §2

Panobinostat = compound: Cc1[nH]c2ccccc2c1CCNCc1ccc(/C=C/C(=O)NO)cc1 [Panobinostat]
Experimental: as §2

ARQ197 = compound: O=C1NC(=O)[C@@H](c2cn3c4c(cccc24)CCC3)[C@@H]1c1c[nH]c2ccccc12 [ARQ197]
Experimental: as §2

Sunitinib = compound: CCN(CC)CCNC(=O)c1c(C)[nH]c(/C=C2\C(=O)Nc3ccc(F)cc32)c1C [Sunitinib]
Experimental: as §2

Cisplatin = compound: N.N.[Cl][Pt][Cl] [Cisplatin]
Experimental: as §2

Test System	IC50 (SRB growth assay) (Sirolimus)	IC50 (SRB growth assay) (Bortezomib)	IC50 (SRB growth assay) (17-AAG)	IC50 (SRB growth assay) (Paclitaxel)	IC50 (SRB growth assay) (Vorinostat)	IC50 (SRB growth assay) (Erlotinib)	IC50 (SRB growth assay) (Brivanib)	IC50 (SRB growth assay) (Azacitidine)	IC50 (SRB growth assay) (MI-219)	IC50 (SRB growth assay) (Lapatinib)	IC50 (SRB growth assay) (Serdemetan)	IC50 (SRB growth assay) (Belinostat)	IC50 (SRB growth assay) (Quisinostat)	IC50 (SRB growth assay) (Tamoxifen)	IC50 (SRB growth assay) (Doxorubicin)	IC50 (SRB growth assay) (Decitabine)	IC50 (SRB growth assay) (Nutlin-3)	IC50 (SRB growth assay) (Sorafenib)	IC50 (SRB growth assay) (5-Fluorouracil)	IC50 (SRB growth assay) (Docetaxel)	IC50 (SRB growth assay) (Dasatinib)	IC50 (SRB growth assay) (Vandetanib)	IC50 (SRB growth assay) (Methotrexate)	IC50 (SRB growth assay) (Mitoxantrone)	IC50 (SRB growth assay) (Tipifarnib)	IC50 (SRB growth assay) (Gefitinib)	IC50 (SRB growth assay) (Panobinostat)	IC50 (SRB growth assay) (ARQ197)	IC50 (SRB growth assay) (Sunitinib)	IC50 (SRB growth assay) (Cisplatin)
HCC 1954	0.0308 nM	5.29 nM	26.4 nM	1.37 nM	452 nM	361 nM	5340 nM	807 nM	> 10000 nM	182 nM	1280 nM	142 nM	7.36 nM	5420 nM	11.1 nM	1650 nM	> 10000 nM	5510 nM	2490 nM	0.37 nM	2290 nM	894 nM	10.2 nM	8.2 nM	449 nM	435 nM	9.53 nM	205 nM	5340 nM	> 10000 nM
HCC 1500	0.274 nM	5.55 nM	905 nM	3.44 nM	987 nM	617 nM	> 10000 nM	2330 nM	1070 nM	529 nM	1960 nM	367 nM	9.34 nM	> 10000 nM	40.3 nM	6210 nM	2670 nM	6090 nM	3930 nM	0.745 nM	959 nM	1280 nM	> 10000 nM	30.6 nM	1050 nM	679 nM	12.8 nM	197 nM	8230 nM	> 10000 nM
HCC 70	0.222 nM	2.84 nM	37.3 nM	2.08 nM	781 nM	> 10000 nM	> 10000 nM	2380 nM	> 10000 nM	3750 nM	1570 nM	356 nM	5.48 nM	> 10000 nM	40.6 nM	2360 nM	> 10000 nM	6250 nM	5360 nM	0.539 nM	> 10000 nM	3960 nM	30.1 nM	74.3 nM	85.1 nM	9360 nM	8.26 nM	324 nM	6810 nM	> 10000 nM
MDA-MB 415	0.688 nM	10.8 nM	71.8 nM	5.81 nM	1530 nM	> 10000 nM	> 10000 nM	> 10000 nM	> 10000 nM	> 10000 nM	6070 nM	548 nM	24.1 nM	9970 nM	66 nM	> 10000 nM	> 10000 nM	5200 nM	6530 nM	0.764 nM	> 10000 nM	4780 nM	326 nM	31.3 nM	6780 nM	> 10000 nM	23.6 nM	691 nM	5100 nM	> 10000 nM
MCF 7	58.2 nM	8.35 nM	93.4 nM	1.79 nM	783 nM	> 10000 nM	> 10000 nM	3730 nM	815 nM	4000 nM	1690 nM	419 nM	5.75 nM	5690 nM	8.94 nM	472 nM	2010 nM	5100 nM	2210 nM	1.12 nM	> 10000 nM	> 10000 nM	13.9 nM	14.8 nM	28.6 nM	> 10000 nM	12 nM	260 nM	4470 nM	> 10000 nM
UACC 812	0.144 nM	7.5 nM	3.62 nM	5.67 nM	2270 nM	4080 nM	> 10000 nM	> 10000 nM	822 nM	132 nM	1050 nM	901 nM	17.2 nM	> 10000 nM	79.9 nM	> 10000 nM	1720 nM	3110 nM	6240 nM	1.65 nM	1600 nM	3540 nM	> 10000 nM	275 nM	666 nM	4830 nM	29.9 nM	528 nM	5490 nM	> 10000 nM
Hs 578T	0.946 nM	5.74 nM	49.4 nM	1.88 nM	999 nM	> 10000 nM	> 10000 nM	5800 nM	> 10000 nM	> 10000 nM	2550 nM	543 nM	12.7 nM	> 10000 nM	57.7 nM	> 10000 nM	> 10000 nM	6640 nM	> 10000 nM	0.796 nM	1360 nM	5710 nM	26 nM	16.8 nM	3930 nM	> 10000 nM	18.5 nM	696 nM	7020 nM	> 10000 nM
